Key:
[1] = tested on: panel of cancer cell lines; assay: BrdU assay, whole panel; assay type: cell-based, human; settings: cell line not named, highest value
Protocol: Since the inhibition of human DNA topoisomerase II should result in decreased proliferation of cancer cells, compounds 1-3 were tested using BrdU assay against a panel of cancer cell lines, including MCF-7 (estrogen-dependent human breast cancer cells), MDA-MB-231 (estrogen-independent human breast cancer cells), SCC-25 (squamous cell carcinoma of the tongue), FaDu (squamous cell carcinoma of the pharynx), A549 (human lung carcinoma), AGS (human gastric adenocarcinoma), LS-180, HT-29 (colon cancer cell lines), T98G (glioblastoma cells), and A375 (melanoma cells). Human normal skin fibroblasts (CRL-2072) were also used as a reference cell line. The BrdU assay allows quantification of cell proliferation since it measures incorporation of thymidine analogue (BrdU) during DNA replication. […] However, although the antiproliferative effect caused by 3 was mostly weaker (except for A549 and A375) than observed for 1, but the former compound was also characterised by lower toxicity against human normal cells. It results in selectivity index approaching 125 and 57, when it comes to lung cancer (A549) and melanoma cells (A375), respectively. […]

[2] = biological target: T1, human DNA topoisomerase IIα (Homo sapiens, UniProt P11388); assay: Stabilisation of covalent DNA-enzyme cleavage complex (Topoisomerase II Drug Screening Kit); assay type: biochemical; settings: 50 µM (Figure S4), linear DNA cleavage intermediate
T1 construct: purchased Inspiralis Ltd, Norwich, UK
Protocol: As relaxation of supercoiled DNA (scDNA) is one of numerous functions of topoisomerase IIα, so the appearance/disappearance of relaxed DNA bands during agarose gel electrophoresis can be used to identify compounds that inhibit the enzyme.
Determination of the inhibitory effect of compounds 1-10 against human topoisomerase Iiα was performed using Human Topoisomerase II Relaxation Assay (Inspiralis Ltd, Norwich, UK) and Topoisomerase II Drug Screening Kit (TopoGEN Inc., Buena Vista, CO, USA) following the manufacturer’s instructions. Briefly, the increased concentrations of the compounds were mixed with the reaction mixture, incubated according to the protocol and, after reaction termination, the samples were analysed by electrophoresis using 1% agarose gel containing […] of ethidium bromide in Tris-Acetate-EDTA (TAE) buffer. Visualisation of the bands was performed using an enhanced chemiluminescence system (Syngene G:BOX Chemi XT4, Cambridge, UK). For the quantitative determination of topoisomerase II inhibition, images were densitometrically scanned.
topoII + compound 4 (100 µM); lane 7: scDNA + topoII + compound 5 (100 µM); lane 8: scDNA + topoII
+ compound 6 (100µM); lane 9: scDNA + topoII + compound 7 (100 µM); lane 10: scDNA + topoII +
compound 8 (100µM); lane 11: scDNA + topoII + compound 9 (100µM); lane 12: scDNA + topoII +
Figure S4. […] Lane 1: scDNA; […]

T1 sequence (P11388 whole entry): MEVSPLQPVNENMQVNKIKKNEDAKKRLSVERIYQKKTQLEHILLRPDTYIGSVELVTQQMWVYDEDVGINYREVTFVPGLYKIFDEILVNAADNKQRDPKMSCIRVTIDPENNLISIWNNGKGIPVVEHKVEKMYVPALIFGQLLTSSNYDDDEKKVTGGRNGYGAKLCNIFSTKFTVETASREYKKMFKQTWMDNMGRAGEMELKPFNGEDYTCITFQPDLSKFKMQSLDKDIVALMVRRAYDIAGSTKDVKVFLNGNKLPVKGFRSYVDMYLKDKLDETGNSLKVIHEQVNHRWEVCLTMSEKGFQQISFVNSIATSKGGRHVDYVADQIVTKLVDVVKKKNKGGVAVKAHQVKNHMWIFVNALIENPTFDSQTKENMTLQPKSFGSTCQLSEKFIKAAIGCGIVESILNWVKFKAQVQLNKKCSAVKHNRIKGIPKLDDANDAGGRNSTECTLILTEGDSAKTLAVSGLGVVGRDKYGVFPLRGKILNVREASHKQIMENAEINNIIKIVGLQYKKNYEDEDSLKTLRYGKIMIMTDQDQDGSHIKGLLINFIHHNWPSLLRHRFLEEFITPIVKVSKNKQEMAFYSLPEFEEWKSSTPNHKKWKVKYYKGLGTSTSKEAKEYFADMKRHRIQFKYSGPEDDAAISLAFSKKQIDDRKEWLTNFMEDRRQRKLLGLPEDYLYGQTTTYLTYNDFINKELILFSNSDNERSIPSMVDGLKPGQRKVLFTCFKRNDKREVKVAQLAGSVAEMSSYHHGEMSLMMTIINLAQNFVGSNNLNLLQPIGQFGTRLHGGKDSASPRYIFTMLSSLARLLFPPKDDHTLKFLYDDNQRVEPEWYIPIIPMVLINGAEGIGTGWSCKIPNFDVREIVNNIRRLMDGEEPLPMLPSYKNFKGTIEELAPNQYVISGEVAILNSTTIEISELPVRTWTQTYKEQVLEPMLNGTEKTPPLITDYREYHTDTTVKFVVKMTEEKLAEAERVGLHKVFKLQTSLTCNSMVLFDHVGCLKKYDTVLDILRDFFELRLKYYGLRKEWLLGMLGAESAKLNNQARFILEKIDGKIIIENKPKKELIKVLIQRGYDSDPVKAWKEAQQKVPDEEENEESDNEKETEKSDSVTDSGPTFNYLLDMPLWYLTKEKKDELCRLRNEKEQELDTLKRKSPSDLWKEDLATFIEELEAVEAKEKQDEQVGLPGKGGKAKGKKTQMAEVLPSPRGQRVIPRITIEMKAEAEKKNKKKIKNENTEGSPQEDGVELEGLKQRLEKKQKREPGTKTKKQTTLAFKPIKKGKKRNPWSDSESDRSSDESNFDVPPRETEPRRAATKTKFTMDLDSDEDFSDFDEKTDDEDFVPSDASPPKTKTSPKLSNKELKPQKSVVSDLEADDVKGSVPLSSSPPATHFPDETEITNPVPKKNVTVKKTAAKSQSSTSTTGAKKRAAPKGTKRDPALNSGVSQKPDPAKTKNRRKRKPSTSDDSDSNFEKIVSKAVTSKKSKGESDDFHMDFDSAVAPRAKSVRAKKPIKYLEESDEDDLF

SMILES	antiproliferative activity, fold higher than that of etoposide [1] [fold]	stabilisation of the covalent DNA-enzyme cleavage complex [2]
CC(C)c1cccc(C(C)C)c1NC(=S)NNC(=O)Cc1cccc2ccccc12 [Compound 1, 4-(2,6-Diisopropylphenyl)-1-[(naphth-1-yl)acetyl]thiosemicarbazide]	≤ 90	–
COc1cc([C@@H]2c3cc4c(cc3[C@@H](O[C@@H]3O[C@@H]5CO[C@@H](C)O[C@H]5[C@H](O)[C@H]3O)[C@H]3COC(=O)[C@H]23)OCO4)cc(OC)c1O [Etoposide, etoposide, reference compound]	–	able to stabilise the covalent DNA-enzyme cleavage complex

From publication PMC9648375, “Identification of the first-in-class dual inhibitors of human DNA topoisomerase IIα and indoleamine-2,3-dioxygenase 1 (IDO 1) with strong anticancer properties” (Journal of Enzyme Inhibition and Medicinal Chemistry, 2022)
